Reference: paper PMC9619220 (Computational and Structural Biotechnology Journal, 2022)

How the values were obtained:
[1] = target: T1, TgPDE1 (Toxoplasma gondii, UniProt A0A7J6K721); assay: colorimetric PDE assay on immunoprecipitated enzyme, dose-response (cAMP hydrolysis; […] for cGMP); type: biochemical
T1 construct: gene TGRH88_036470; native smHA-tagged TgPDE1 immunoprecipitated from tachyzoites

[2] = target: T2, TgPDE2 (Toxoplasma gondii, UniProt A0A7J6KGW2); assay: colorimetric PDE assay, single concentration ([…]), partial inhibition of cAMP hydrolysis; type: biochemical
T2 construct: gene TGRH88_018390; native smHA-tagged TgPDE2 immunoprecipitated from tachyzoites

[3] = target: T1, TgPDE1; assay: colorimetric PDE assay, single concentration ([…]), moderate effect; type: biochemical
[4] = target: T1, TgPDE1; assay: colorimetric PDE assay on immunoprecipitated enzyme, dose-response (cAMP hydrolysis); type: biochemical
[5] = substrate: [H][C@@]12COP(=O)(O)O[C@@]1([H])[C@@H](O)[C@H](n1cnc3c(=O)[nH]c(N)nc31)O2; assay: Michaelis-Menten kinetics, colorimetric PDE assay (Km); type: biochemical, Toxoplasma gondii

CC(C)c1n[nH]c2c(=O)[nH]c(Cc3ccccc3)nc12 [BIPPO, 5-benzyl-3-isopropyl-1H-pyrazolo (4,3-d) pyrimidin-7(6H)-one]
IC50 [1]: 310 nM

CC(C)Cn1c(=O)n(C)c(=O)c2[nH]cnc21 [IBMX, 3-isobutyl-1-methylxanthine]
colorimetric PDE assay, single concentration (100 μM), partial inhibition of cAM [2]: hydrolysis of cAMP by TgPDE2 was sensitive to partial inhibition by IBMX but to none of the other drugs | colorimetric PDE assay, single concentration (100 μM), moderate effect [3]: The effect of IBMX on TgPDE1 was moderate.

CCCOc1ccccc1-c1nc2nn[nH]c2c(=O)[nH]1 [zaprinast, 1,4-Dihydro-5-(2-propoxyphenyl)-7H-1,2,3-triazolo (4,5-d) pyrimidin-7-one]
IC50 [4]: 1490 nM

B1: TgPDE1 (Toxoplasma gondii) (protein)
chain: MRLREHSLLLCVDAMSRDSPVASPAHSGVFGPSADAEVSEVFSLPSLSAVPGAASASSLSRENSLVSSRRASPSVSPPAGSPLWRLVRRCGQGEGERENVERCRLRERREECGAARRGPPASAATSDCSCPSAGDRRRVQSRRRRARTFQGRSFCGNHVSTEAEREGETEGEEETEGEEGREEYDSKRRGRLARRLGRRFVIAAAERGRKREGEETIVLRGNQGECWQEAQRTADSPDCSSSSVCCFGGSCSTASQCCACMRLASVSCPSPRSSFSTFHCSLPAVSSASAAFVCPRESPGSDSNSSPSCASSRGFSPSSPKATVSSSRPSSSSASPLRSSLSAPSGLFPVGSGCSSDVCVSVPLPAMFRGCRVHSSAPSSRTEQGTALLTGAPPSANELEAASAMANPTNSSRFSRVKTVSFATLSECGSSHISRRSDSASEPEAEREKPGLCSMRVARRESSPAARSPGRQSERRGTDSSCTSLPQRSDRAGRDRVGSRGSAEQRSSTSSRRVSDHSRAEAGLWSAGLGDSGASLEPDLESRSAFLRRCRARLAAARRKVCQAFQSLAEHDLVFRMKEDLAQMRHESSLRSVFADGCRERSGVEMSERTRLSVGGGTGRHLSVGTSTHKEGSTHKEGSEKERIRDGGSASPSTHLSRSGSGDVILRRFPLKFVDRGLEDLFADNINRWMATRLLMGVLSLVVTSVMWPLMAWSFNLLDAFNHSEPLGILFHINMAVTVFVAVLFIVTKRCRHLAEHAELIADGGTFLVVTIWGIWNTTASYILEHSYVQDVIGSAYPMHPADAPISLEKTSAWSTSLEASSAVAYLYGLLLIVQLDVVYPSRTRRTWQVHLMFFGFSTASIVIRGALNPDFVPVPFVVIRALTYLMLTVFLFIGRHATELQQRHTFYNWLTTRKRMDRLESDLKRQREKVKVSTAVEQLVHMVKHCMESCQTVESEVGSELHVSYRSLLIDCHQTLSRCLSILTHTSDLYTVQFGDLDSDAHRDIIQAFLNNHNSSPADWTRVTTAAYTRGVEDGCWSASDASSEAKSGDLGTPFAGSEALALVRRDSSHSWASSRGASAWPIQANWTGTLDGVHVHAFLHAVPEACGGAATPEHDGLRGEGLGDLGRASPRRQAGRQLTRLDEGRERDSEPEDLTDDGDSAEPPKNAASETEEKVSVPDNGRKTPTQALGEMKPGLTSKGLHDTLARVRASTHREVESRGRERRGDSAPCSSPSQRLTPQSLADFQARLRYEALIKLVHTSPRTPELSLGIPVSEEAARDWNFDCLRHAQLSPTPLVDVGYALLHRTSEDLRLPPDVVLRFLTAVEIQYNHVPYHNCIHGLMVAQKMVALTEVLELSQSIGSRDRALVVVAGLCHDIGHPGRNNALFINALDPVAVLYNDKSVLENYHSCLTFKTLELPDCDIFFSLRTKDYHMVRSLIIDLILATDMKNHFETVSRFRVRRNALDFDLSSEEDFWFAVKIIMKCADLSHCSVPWSQHFQWCQRLSVEFYDQGDEEVARHLPMSPLCDREKHSEVAKSQLGFMSFVAVPLFEELMAIDGTGNIEKYCISVMKTNASHWEALSSAAVPVPLLGEAPSPDVAPPLLHLIDGSGAAAVHPGSKAAEIANRYASSTVTTLDLTCLVYRTQLNRARRSSQQSGRRVSEGTSA
notes: native smHA-tagged TgPDE1 immunoprecipitated from tachyzoites
Km [5]: 18 µM
